The assay deals with T1, Solute carrier family 2, facilitated glucose transporter member 2 (Homo sapiens, UniProt P11168).
T1 sequence (P11168 whole entry): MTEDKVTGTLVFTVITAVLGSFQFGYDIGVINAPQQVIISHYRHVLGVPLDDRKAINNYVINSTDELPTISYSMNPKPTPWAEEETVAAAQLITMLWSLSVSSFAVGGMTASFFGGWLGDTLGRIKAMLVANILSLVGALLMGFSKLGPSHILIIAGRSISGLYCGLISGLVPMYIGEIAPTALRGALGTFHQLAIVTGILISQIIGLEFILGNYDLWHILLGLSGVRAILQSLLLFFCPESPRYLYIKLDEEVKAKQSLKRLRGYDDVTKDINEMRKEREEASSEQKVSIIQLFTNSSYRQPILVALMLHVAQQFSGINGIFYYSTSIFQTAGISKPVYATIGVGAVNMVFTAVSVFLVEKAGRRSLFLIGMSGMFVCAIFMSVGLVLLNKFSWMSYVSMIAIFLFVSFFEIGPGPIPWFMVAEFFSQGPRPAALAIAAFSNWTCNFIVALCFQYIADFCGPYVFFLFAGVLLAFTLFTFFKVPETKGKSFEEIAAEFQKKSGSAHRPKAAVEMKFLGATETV
In words: Inhibition of the Glucose Transporter (GLUT2, SLC2A2) as assessed by a FRET based flow cytometry assay using a genetically-encoded biosensor for measuring free glucose (FLII12Pglu-700uDelta6) in HEK293 JumpIN TRex SLC2A2 WT-OE cells (PubChem AID: 1794829). The class given is functional, cell-based. On the technique in general: Flow cytometry measures light scatter and fluorescence of single cells or particles in a stream.

For the compound `O=C(Oc1cccc(F)c1OC(=O)c1cccc(O)c1)c1cccc(O)c1`, the concentration for half-maximal inhibition (IC50) is above 10 µM.
Take `C=C1[C@@H](C)[C@H]2[C@H](Cc3ccccc3)NC(=O)[C@]23OC(=O)/C=C/[C@H](O)CCC[C@@H](C)C/C=C/[C@H]3[C@@H]1O` [CYTOCHALASIN B]: the 50% inhibitory concentration (IC50) is above 10 µM.
Compound `OC[C@H]1OC(O)[C@H](O)[C@@H](O)[C@@H]1O` (stereo partly drawn) [DEXTROSE] gave a concentration for a half-maximal effect (EC50) of 527 µM.

The term IC50 denotes the concentration at which inhibition is half-maximal. A low value points to greater potency. In general, EC50 refers to the concentration at which the effect is half-maximal. High values mean a less potent agent, low ones a more potent agent.

The values above are taken from ChEMBL document CHEMBL5209578, “Flow cytometry transport assay for SLC2A2 using HEK293 JumpIN TRex SLC2A2 WT-OE cells” (2022).
